System: Umbilical cord derived mesenchymal stem cells
Assay: Biopreservation of MSCs at 4° C. for three days (viability by trypan blue, adhesion, proliferation, migration)
Assay type: cell-based
Settings: 0.1 μM in CBS, P<0.01
Procedure: Approximately 200,000 umbilical cord derived mesenchymal stem cells were stored in 200 μl of commercial biopreservation solution (CBS) as a control and 200 μl of CBS supplemented with the medium supplement of the invention. The samples were kept at 4° C. for three days. Cells were resuspended in DMEM base, and viability was assessed by trypan blue exclusion assay. […] Cell adhesion was evaluated 24 hours after cells were seeded in 10 mm plates. […] Finally, the cells preserved with CBS proliferated less than those preserved in CBS with pterostilbene (FIG. 4D). Therefore, the solution of the invention improves the functionality of the cells after 3 days of biopreservation.

COc1cc(/C=C/c2ccc(O)cc2)cc(OC)c1 [Pterostilbene]
cell viability better compared to CBS alone: approximately 10%
